#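 Interpolation was linear, between the two tested concentrations surrounding the appropriate level; five concentrations were tested over 48 hours in 96-well plates. TGI denotes the concentration required for complete inhibition of growth.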
# Experiments:
# Assay in all cases: growth of human tumour cells (NCI), 48 h
# 786-0 renal = tested on: 786-0 renal
# A549 NSCLC = tested on: A549 NSCLC
# ACHN renal = tested on: ACHN renal
# HL-60(TB) leukemia = tested on: HL-60(TB) leukemia
# M14 melanoma = tested on: M14 melanoma
# NCI-H226 lung = tested on: NCI-H226 lung
# OVCAR-3 ovarian = tested on: OVCAR-3 ovarian
# OVCAR-8 ovarian = tested on: OVCAR-8 ovarian
# SF-295 CNS = tested on: SF-295 CNS
# SK-OV-3 ovarian = tested on: SK-OV-3 ovarian
# SNB-75 CNS = tested on: SNB-75 CNS
# DU-145 prostate = tested on: DU-145 prostate
# HS 578T breast = tested on: HS 578T breast
# MCF7 breast = tested on: MCF7 breast
# MDA-MB-231 breast = tested on: MDA-MB-231 breast
# MDA-MB-435 = tested on: MDA-MB-435
# PC-3 prostate = tested on: PC-3 prostate
# BT-549 breast = tested on: BT-549 breast
# T-47D breast = tested on: T-47D breast
SMILES,TGI (786-0 renal) [µM],TGI (A549 NSCLC) [µM],TGI (ACHN renal) [µM],TGI (HL-60(TB) leukemia) [µM],TGI (M14 melanoma) [µM],TGI (NCI-H226 lung) [µM],TGI (OVCAR-3 ovarian) [µM],TGI (OVCAR-8 ovarian) [µM],TGI (SF-295 CNS) [µM],TGI (SK-OV-3 ovarian) [µM],TGI (SNB-75 CNS) [µM],TGI (DU-145 prostate) [µM],TGI (HS 578T breast) [µM],TGI (MCF7 breast) [µM],TGI (MDA-MB-231 breast) [µM],TGI (MDA-MB-435) [µM],TGI (PC-3 prostate) [µM],TGI (BT-549 breast) [µM],TGI (T-47D breast) [µM]
Cn1c(=O)cc2[nH]c3ccccc3n2c1=O,62.9,> 100,> 100,> 100,> 100,> 100,> 100,> 100,> 100,> 100,> 100,,,,,,,,
CSc1ccc(NC(=O)C2c3[nH]c4ccccc4c3C3CCC(C(C)(C)C)CC3C2C(=O)O)cc1 (stereo not drawn),32.2,30.9,32,23,44.6,33.1,,28.8,38.5,37.3,37.9,,,,,,,,
COC(=O)c1c(-c2cc(OC)c(OC)c(OC)c2)oc2ccccc2c1=O,> 100,> 100,> 100,> 100,> 100,> 100,> 100,> 100,> 100,> 100,> 100,,,,,,,,
O=C(O)CCCNc1ncc2c(n1)-c1ccccc1OC2,> 100,> 100,> 100,> 100,> 100,> 100,> 100,> 100,> 100,> 100,> 100,> 100,> 100,> 100,> 100,> 100,> 100,,
CC(=O)c1ccccc1NC(=O)C(=O)C(C(=O)c1ccccc1-c1ccccc1)C1OC(=O)c2ccccc21 (stereo not drawn),34.3,80.4,51.2,81.2,35.4,36.2,48.1,47.9,52.4,> 100,51.7,,,,,,,,
COc1ccc(OC)c(/C=C2\CCc3ccccc3C2=O)c1,13.8,65.6,81.2,5.96,16.3,18.6,7.67,20.2,12.4,18.8,3.52,,,,,,,,
COC(=O)Cc1c([C@H]2[C@H](CC(=O)OC)c3ccccc3N2S(=O)(=O)c2ccc(C)cc2)[nH]c2ccccc12,> 100,> 100,> 100,> 100,> 100,> 100,> 100,> 100,> 100,> 100,> 100,> 100,> 100,> 100,> 100,> 100,> 100,> 100,
C[C@]12CC[C@H](O)CC1=CC[C@@H]1C2CC[C@]2(C)C(=O)NC(=O)CC12 (stereo partly drawn),> 100,> 100,> 100,> 100,> 100,> 100,> 100,> 100,> 100,> 100,> 100,,,,,,,,
CN1C(=O)C(C(=O)Nc2ccccn2)C2C[C@@]1(C)Oc1ccccc12 (stereo partly drawn),> 100,> 100,> 100,> 100,> 100,> 100,> 100,> 100,> 100,> 100,> 100,> 100,> 100,,> 100,> 100,> 100,> 100,
CCOC(=O)/C(C(=S)NCc1ccccc1)=C(/N)N1CCCC1,> 100,> 100,> 100,> 100,> 100,> 100,> 100,> 100,> 100,,,> 100,> 100,> 100,> 100,> 100,> 100,,> 100
Cn1c2ccccc2c2ccc3c(c21)C(=O)C(c1ccccc1)=CC3=O,32.8,> 100,> 100,> 100,> 100,40.7,79.2,42.6,> 100,> 100,> 100,,,,,,,,
COc1ccc(OC)c(NC(=O)C(=O)CC(=O)c2sc(-n3nc(-c4ccccc4)cc3-c3ccccc3)nc2C)c1,> 100,> 100,,> 100,> 100,> 100,> 100,> 100,> 100,> 100,> 100,,,,,,,,
CC(C)OC/N=C(/N)NC#N,> 100,> 100,> 100,> 100,> 100,> 100,> 100,> 100,> 100,> 100,> 100,,,,,,,,
CC(=O)NNc1nc(C)c(C(=O)NNC(=O)C(=O)Nc2c([N+](=O)[O-])ccc(C)c2C)s1,> 100,> 100,> 100,> 100,> 100,> 100,> 100,> 100,> 100,,,,,,,,,,
COCN(C)c1nc(N(C)C)nc(N(C)C)n1,> 100,> 100,> 100,> 100,> 100,,> 100,> 100,> 100,> 100,> 100,,,,,,,,
CC1=NN2C(c3ccc([N+](=O)[O-])cc3)=CSC2=NC(C)(C)C1,> 100,> 100,> 100,> 100,> 100,> 100,> 100,> 100,> 100,> 100,> 100,,,,,,,,
COC(=O)CC(C(C(=O)OC)C(=O)OC)N1C(=O)OC(c2ccccc2)C1c1ccccc1 (stereo not drawn),> 100,> 100,> 100,> 100,> 100,> 100,> 100,> 100,> 100,> 100,> 100,,,,,,,,

SMILES,TGI (786-0 renal) [µM],TGI (A549 NSCLC) [µM],TGI (ACHN renal) [µM],TGI (HL-60(TB) leukemia) [µM],TGI (M14 melanoma) [µM],TGI (NCI-H226 lung) [µM],TGI (OVCAR-3 ovarian) [µM],TGI (OVCAR-8 ovarian) [µM],TGI (SF-295 CNS) [µM],TGI (SK-OV-3 ovarian) [µM],TGI (SNB-75 CNS) [µM],TGI (DU-145 prostate) [µM],TGI (HS 578T breast) [µM],TGI (MCF7 breast) [µM],TGI (MDA-MB-231 breast) [µM],TGI (MDA-MB-435) [µM],TGI (PC-3 prostate) [µM],TGI (BT-549 breast) [µM],TGI (T-47D breast) [µM]
COc1cc([C@@H]2c3cc4c(cc3[C@@H](OC(=O)c3cccc(N)c3)C3COC(=O)[C@@H]32)OCO4)cc(OC)c1O (stereo partly drawn),28.9,25.9,15.3,> 41.2,28.3,6.09,> 100,> 100,35.4,> 75.2,> 100,,,,,,,,
ClCC[N-]CC[N-]CCCl.ClCC[N-]CC[N-]CCCl.[O-][Cl+3]([O-])([O-])O.[Zn+2],39.1,> 100,49.6,> 100,38.5,> 100,32.1,45.4,> 100,> 100,44.1,,,,,,,,
Cc1ccc(/C=C/C(=O)c2sc(-n3nc(-c4ccccc4)cc3-c3ccccc3)nc2C)cc1,> 100,> 100,> 100,> 100,,> 100,> 100,> 100,> 100,> 100,> 100,,,,,,,,
COc1c(I)c(OC)c2c(c1I)O[C@@H]1OCC[C@H]21,> 100,> 100,> 100,55.6,50.5,> 100,91.7,> 100,> 100,> 100,82.9,,,,,,,,
CC(C)(C)[C@H]1CO[C@]2(c3ccccc3)[C@@H]3C[C@@H]3C(=O)N12,> 100,> 100,> 100,> 100,> 100,> 100,> 100,> 100,> 100,> 100,> 100,,,,,,,,
O=C(CSCC(=O)N/N=C\c1ccc(O)c(O)c1O)N/N=C\c1ccc(O)c(O)c1O,4.56,53.7,22,49.9,21.5,53.1,17.6,> 100,4.94,> 100,21.2,29.1,80.8,57.4,78.1,3.59,,,76.1
CC1(C)Cc2c(oc3ncnc(N)c23)CS1,> 100,> 100,> 100,,> 100,> 100,> 100,> 100,> 100,> 100,> 100,,,,,,,,
C(=C\C(Sc1ccccc1)c1ccccc1)/NNC1=NC(c2ccccc2)C(c2ccccc2)=NN1 (stereo not drawn),> 100,> 100,> 100,37.6,> 100,> 100,> 100,> 100,> 100,> 100,> 100,,,,,,,,
C=CCCCN1CCCC(C)C1=S (stereo not drawn),> 100,> 100,> 100,> 100,> 100,> 100,> 100,> 100,> 100,> 100,> 100,,,,,,,,
Cc1c2ccncc2c(C)c2c1[nH]c1ccc(Oc3ccccc3)cc12,3.24,4.8,17.3,5.88,,37.6,7.75,3.48,12.6,15.9,8.73,,,,,,,,
COc1ccc(N=Nc2ccc3oc(=O)c(C(=O)Nc4ccccc4C)cc3c2)cc1,> 10,,> 10,,> 10,> 10,> 10,> 10,> 10,> 10,> 10,> 10,> 10,> 10,> 10,> 10,> 10,,> 10
CC1(C)c2ccccc2N2O[C@@H]3C(=O)N(c4ccccc4)C(=O)[C@@H]3C21c1ccccc1 (stereo partly drawn),> 100,> 100,,> 100,> 100,> 100,> 100,> 100,> 100,> 100,> 100,,,,,,,,
COc1cc2c(oc(=O)c3cc4cc([Si](C)(C)C)oc4c(OC)c32)c2cccc(O)c12,> 100,> 100,> 100,> 100,> 100,> 100,> 100,> 100,> 100,> 100,> 100,,,,,,,,
CCOC(=O)CSC1NC(C(=O)OC)CC1OC (stereo not drawn),> 100,> 100,> 100,,> 100,,> 100,> 100,> 100,> 100,> 100,> 100,> 100,> 100,> 100,> 100,> 100,> 100,
N#Cc1ccc(Oc2ccccc2)cc1C#N,> 100,> 100,> 100,> 100,> 100,> 100,> 100,> 100,> 100,> 100,> 100,,,,,,,,
CC(=O)C1C(=O)C(=O)N(c2ccc([N+](=O)[O-])cc2)C1=O (stereo not drawn),> 100,> 100,> 100,> 100,> 100,> 100,> 100,> 100,> 100,> 100,> 100,> 100,> 100,> 100,> 100,> 100,> 100,> 100,
COc1ccc(-c2csc(Cc3nc4c(Br)cc(Br)cc4c(=O)n3-c3ccc(OC)cc3)n2)cc1,> 100,> 100,> 100,,63.1,> 100,> 100,> 100,> 100,> 100,> 100,> 100,> 100,> 100,> 100,> 100,> 100,> 100,
